We go through eleven compounds from US20230150974A1 (Foghorn Therapeutics Inc., priority 2020, published 2023).

The target in assay [1] is T1, HiBit-BRG1 (Homo sapiens, UniProt P51532).
T1 construct: expressed in transfected cells
The assay can be described thus: HiBit-BRG1 cell-based degradation assay (Nano-Glo HiBiT Lytic Detection). The following applies: HeLa cells expressing HiBit-BRG1 and LgBit, 24 h; for DC50: read-out: BRG1 HiBit Degradation IC50; for Dmax: read-out: BRG1 HiBit Degradation Maximum (%). In a few lines:
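Luminescence from Nano-Glo HiBiT lytic detection, read after 24 h compound exposure, scored degradation in a stable HeLa HiBiT-BRG1/LgBit line seeded at 5000 cells/well. DMSO wells defined 0% and 2 μM known BRM/BRG1 degrader wells defined full degradation.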
In general terms: HiBiT is a short tag that completes a luciferase, so light tracks the accessible tagged protein.

Assay [2] concerns the target T2, HiBiT-BRM (Homo sapiens, UniProt P51531).
T2 construct: expressed in transfected cells
The assay can be described thus: HiBiT-BRM cell-based degradation assay (Nano-Glo HiBiT Lytic Detection). The following applies: HeLa cells expressing HiBiT-BRM, 24 h; for DC50: read-out: BRM HiBit Degradation IC50. The method in brief: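 HeLa cells stably expressing HiBiT-tagged BRM were treated for 24 h, then lysed with LgBiT-containing Nano-Glo reagent and luminescence read. % degradation scaled between DMSO (high control) and 2 μM reference BRM/BRG1 degrader (low control).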

Where only a bound is given, the exact number is not on record here.

T2 sequence (P51531 whole entry): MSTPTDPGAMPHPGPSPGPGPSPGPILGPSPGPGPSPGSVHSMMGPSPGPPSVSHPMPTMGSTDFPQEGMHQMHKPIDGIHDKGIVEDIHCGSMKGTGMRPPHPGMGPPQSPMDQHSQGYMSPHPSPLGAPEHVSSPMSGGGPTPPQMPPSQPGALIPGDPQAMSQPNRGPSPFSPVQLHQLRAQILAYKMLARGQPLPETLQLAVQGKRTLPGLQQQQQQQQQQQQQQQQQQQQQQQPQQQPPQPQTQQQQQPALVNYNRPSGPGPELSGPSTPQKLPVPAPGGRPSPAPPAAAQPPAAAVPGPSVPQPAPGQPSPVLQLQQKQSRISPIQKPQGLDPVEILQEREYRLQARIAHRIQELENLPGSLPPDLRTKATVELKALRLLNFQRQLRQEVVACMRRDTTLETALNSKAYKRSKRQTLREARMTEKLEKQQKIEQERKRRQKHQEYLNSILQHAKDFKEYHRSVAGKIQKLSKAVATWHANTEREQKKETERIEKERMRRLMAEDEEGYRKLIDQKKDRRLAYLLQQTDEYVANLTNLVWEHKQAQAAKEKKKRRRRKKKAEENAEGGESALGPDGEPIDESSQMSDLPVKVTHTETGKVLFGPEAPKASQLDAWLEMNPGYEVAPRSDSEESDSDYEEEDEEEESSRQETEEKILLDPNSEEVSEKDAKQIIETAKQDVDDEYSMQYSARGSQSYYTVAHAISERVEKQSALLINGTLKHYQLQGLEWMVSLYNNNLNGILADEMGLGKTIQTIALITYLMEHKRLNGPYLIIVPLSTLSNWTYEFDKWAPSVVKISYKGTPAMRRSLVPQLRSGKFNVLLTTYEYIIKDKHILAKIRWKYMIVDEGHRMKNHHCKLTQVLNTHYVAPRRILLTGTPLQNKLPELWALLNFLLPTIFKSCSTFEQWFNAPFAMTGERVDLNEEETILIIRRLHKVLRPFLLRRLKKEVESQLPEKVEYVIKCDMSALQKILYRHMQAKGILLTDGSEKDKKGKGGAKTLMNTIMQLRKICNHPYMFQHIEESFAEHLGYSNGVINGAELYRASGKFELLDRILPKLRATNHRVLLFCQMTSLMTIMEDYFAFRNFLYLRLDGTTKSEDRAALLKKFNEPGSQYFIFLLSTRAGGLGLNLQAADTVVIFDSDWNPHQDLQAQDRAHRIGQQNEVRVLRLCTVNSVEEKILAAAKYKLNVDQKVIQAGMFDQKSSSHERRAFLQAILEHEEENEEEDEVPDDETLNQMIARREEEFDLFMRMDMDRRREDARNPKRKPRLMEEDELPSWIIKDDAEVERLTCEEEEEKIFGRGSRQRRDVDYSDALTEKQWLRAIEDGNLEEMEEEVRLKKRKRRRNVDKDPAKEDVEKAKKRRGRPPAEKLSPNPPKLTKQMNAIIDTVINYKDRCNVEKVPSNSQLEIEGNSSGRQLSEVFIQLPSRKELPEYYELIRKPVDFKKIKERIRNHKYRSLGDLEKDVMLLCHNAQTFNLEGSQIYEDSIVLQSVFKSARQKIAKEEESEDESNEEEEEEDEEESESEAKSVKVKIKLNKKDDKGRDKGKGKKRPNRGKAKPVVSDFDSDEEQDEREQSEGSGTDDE
T1 sequence (P51532 whole entry): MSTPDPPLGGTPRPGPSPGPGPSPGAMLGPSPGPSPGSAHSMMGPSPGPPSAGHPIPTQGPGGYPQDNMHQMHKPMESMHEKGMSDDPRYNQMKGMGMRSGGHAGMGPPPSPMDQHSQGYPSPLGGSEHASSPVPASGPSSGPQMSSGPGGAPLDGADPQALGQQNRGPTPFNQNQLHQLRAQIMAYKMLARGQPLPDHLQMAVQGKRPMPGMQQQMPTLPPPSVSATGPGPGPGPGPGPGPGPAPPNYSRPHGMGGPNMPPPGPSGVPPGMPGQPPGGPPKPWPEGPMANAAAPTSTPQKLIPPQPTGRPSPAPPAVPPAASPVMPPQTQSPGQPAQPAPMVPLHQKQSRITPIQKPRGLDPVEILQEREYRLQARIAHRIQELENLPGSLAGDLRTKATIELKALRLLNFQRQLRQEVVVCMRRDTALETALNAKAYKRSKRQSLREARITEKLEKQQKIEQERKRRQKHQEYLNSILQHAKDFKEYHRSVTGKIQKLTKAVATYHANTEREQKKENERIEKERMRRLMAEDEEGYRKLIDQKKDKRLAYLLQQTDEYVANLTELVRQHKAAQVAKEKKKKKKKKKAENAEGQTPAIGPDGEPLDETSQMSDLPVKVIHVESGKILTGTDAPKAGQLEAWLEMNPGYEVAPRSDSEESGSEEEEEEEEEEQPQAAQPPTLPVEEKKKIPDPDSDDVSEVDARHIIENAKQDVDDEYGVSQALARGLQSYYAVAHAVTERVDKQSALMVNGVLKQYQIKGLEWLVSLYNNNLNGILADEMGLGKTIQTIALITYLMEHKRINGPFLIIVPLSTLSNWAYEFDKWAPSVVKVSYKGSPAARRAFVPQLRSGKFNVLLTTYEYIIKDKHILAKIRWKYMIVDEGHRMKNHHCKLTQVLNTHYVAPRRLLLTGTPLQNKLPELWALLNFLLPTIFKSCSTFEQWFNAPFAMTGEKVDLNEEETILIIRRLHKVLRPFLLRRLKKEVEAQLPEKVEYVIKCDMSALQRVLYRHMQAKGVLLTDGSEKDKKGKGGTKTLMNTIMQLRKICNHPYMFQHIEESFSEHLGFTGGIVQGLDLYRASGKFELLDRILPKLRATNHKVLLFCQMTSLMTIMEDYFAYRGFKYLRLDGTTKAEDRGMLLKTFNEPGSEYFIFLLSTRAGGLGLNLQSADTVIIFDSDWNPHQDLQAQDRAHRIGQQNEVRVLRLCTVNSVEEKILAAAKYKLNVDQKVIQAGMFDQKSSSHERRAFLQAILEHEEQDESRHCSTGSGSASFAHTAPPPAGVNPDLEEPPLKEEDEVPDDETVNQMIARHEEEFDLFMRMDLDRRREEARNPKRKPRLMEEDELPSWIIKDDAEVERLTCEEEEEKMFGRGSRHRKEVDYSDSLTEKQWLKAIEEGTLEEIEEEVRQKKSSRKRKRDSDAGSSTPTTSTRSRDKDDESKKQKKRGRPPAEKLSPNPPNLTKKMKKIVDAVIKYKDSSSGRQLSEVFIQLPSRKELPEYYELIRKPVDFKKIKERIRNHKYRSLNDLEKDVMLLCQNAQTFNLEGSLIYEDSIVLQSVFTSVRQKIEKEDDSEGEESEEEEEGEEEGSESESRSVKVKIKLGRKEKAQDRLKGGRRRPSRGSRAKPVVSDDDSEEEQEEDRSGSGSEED

As to `Cc1ncsc1-c1ccc([C@H](C)NC(=O)[C@@H]2C[C@@H](O)CN2C(=O)[C@@H](c2cc(OCCN3C[C@@H]4[C@H](C3)[C@H]4C(=O)NCc3ccc(CCOc4cc(-c5ccccc5O)nnc4N)cc3)no2)C(C)C)cc1` [Compound 194], in assay [1], the DC50 was > 100 nM and the Dmax is > 75%. In assay [2], the “BRM HiBit Degradation Maximum (%)” value was “A (“A” indicates maximum degradation ≥75%)” and the DC50 is > 10 nM.

For `Nc1nnc(-c2ccccc2O)cc1NCCc1ccc(CNC(=O)CCCCNc2cccc3nnn(C4CCC(=O)NC4=O)c(=O)c23)cc1` (centres unmarked) [Compound 141, N-(4-(2-((3-amino-6-(2-hydroxyphenyl)pyridazin-4-yl)amino)ethyl)benzyl)-5-((3-(2,6-dioxopiperidin-3-yl)-4-oxo-3,4-dihydrobenzo[d][1,2,3]triazin-5-yl)amino)pentanamide], in assay [1], the DC50 is > 1000 nM and the Dmax is < 50%. In addition, in assay [2], the “BRM HiBit Degradation Maximum (%)” value is reported as “C (“C” indicates maximum degradation <50%)” and the DC50 was > 1000 nM.

With `Nc1nnc(-c2ccccc2O)cc1OCCc1ccc(CNCCCC2CN(c3ccc4c(c3)C(=O)N(C3CCC(=O)NC3=O)C4=O)C2)cc1` (centres unmarked) [Compound 123, 5-[3-[3-([[4-(2-[[3-amino-6-(2-hydroxyphenyl)pyridazin-4-yl]oxy]ethyl)phenyl]methyl]amino)propyl]azetidin-1-yl]-2-(2,6-dioxopiperidin-3-yl)isoindole-1,3-dione], in assay [1], the DC50 was > 1000 nM and the Dmax is < 50%. In addition, in assay [2], the “BRM HiBit Degradation Maximum (%)” value is reported as “B (“B” indicates maximum degradation ≥50%)” and the DC50 is > 10 nM.

On to `Cc1ncsc1-c1ccc([C@H](C)NC(=O)[C@@H]2C[C@@H](O)CN2C(=O)[C@@H](c2cc(OCCN3CC(CC(=O)NCc4ccc(CCOc5cc(-c6ccccc6O)nnc5N)cc4)C3)no2)C(C)C)cc1` [Compound 193, (2S,4R)-1-[2-[3-(2-[3-[([[4-(2-[[3-amino-6-(2-hydroxyphenyl)pyridazin-4-yl]oxy]ethyl)phenyl]methyl]carbamoyl)methyl]azetidin-1-yl]ethoxy)-1,2-oxazol-5-yl]-3-methylbutanoyl]-4-hydroxy-N-[(1S)-1-[4-(4-methyl-1,3-thiazol-5-yl)phenyl]ethyl]pyrrolidine-2-carboxamide], for which, in assay [1], the DC50 was > 1000 nM and the Dmax is < 50%. In assay [2], the “BRM HiBit Degradation Maximum (%)” value is “B (“B” indicates maximum degradation ≥50%)” and the DC50 was > 100 nM.

`Nc1nnc(-c2ccccc2O)cc1N1CCN(CC(=O)N2CC(COc3cccc4c3C(=O)N(C3CCC(=O)NC3=O)C4=O)C2)CC1` (centres unmarked) [Compound 76, 4-[[1-(2-[4-[3-amino-6-(2-hydroxyphenyl)pyridazin-4-yl]piperazin-1-yl]acetyl)azetidin-3-yl]methoxy]-2-(2,6-dioxopiperidin-3-yl)isoindole-1,3-dione]: in assay [1], the DC50 was > 1000 nM and the Dmax was < 50%. Further, in assay [2], the “BRM HiBit Degradation Maximum (%)” value is “C (“C” indicates maximum degradation <50%)” and the DC50 is > 1000 nM.

Regarding `Cc1ncsc1-c1ccc([C@H](C)NC(=O)[C@@H]2C[C@@H](O)CN2C(=O)[C@@H](NC(=O)CCCCCCCCCCCCCCC(=O)N(C)Cc2ccc(CCOc3cc(-c4ccccc4O)nnc3N)cc2)C(C)(C)C)cc1` [Compound 215, N1-(4-(2-((3-amino-6-(2-hydroxyphenyl)pyridazin-4-yl)oxy)ethyl)benzyl)-N16-((S)-1-((2S,4R)-4-hydroxy-2-(((S)-1-(4-(4-methylthiazol-5-yl)phenyl)ethyl)carbamoyl)pyrrolidin-1-yl)-3,3-dimethyl-1-oxobutan-2-yl)-N1-methylhexadecanediamide], in assay [1], the DC50 was > 1000 nM and the Dmax was < 50%. Further, in assay [2], the “BRM HiBit Degradation Maximum (%)” value was “A (“A” indicates maximum degradation ≥75%)” and the DC50 is > 10 nM.

With `Nc1nnc(-c2ccccc2O)cc1N1CCN(CC(=O)NCCCCS(=O)(=O)CCCNc2cccc3c2C(=O)N(C2CCC(=O)NC2=O)C3=O)CC1` (centres unmarked) [Compound 80, 2-[4-[3-amino-6-(2-hydroxyphenyl)pyridazin-4-yl]piperazin-1-yl]-N-[4-(3-[[2-(2,6-dioxopiperidin-3-yl)-1,3-dioxoisoindol-4-yl]amino]propanesulfonyl)butyl]acetamide], in assay [1], the DC50 was > 1000 nM and the Dmax was < 50%. In assay [2], the “BRM HiBit Degradation Maximum (%)” value is “C (“C” indicates maximum degradation <50%)” and the DC50 is > 1000 nM.

For `CN(CCNC(=O)c1ccc(CCOc2cc(-c3ccccc3O)nnc2N)cc1)CCNc1cccc2c1C(=O)N(C1CCC(=O)NC1=O)C2=O` (centres unmarked) [Compound 61, 4-(2-[[3-amino-6-(2-hydroxyphenyl)pyridazin-4-yl]oxy]ethyl)-N-[2-[(2-[[2-(2,6-dioxopiperidin-3-yl)-1,3-dioxoisoindol-4-yl]amino]ethyl)(methyl)amino]ethyl]benzamide], in assay [1], the DC50 was > 1000 nM and the Dmax is < 50%. Besides, in assay [2], the “BRM HiBit Degradation Maximum (%)” value is “B (“B” indicates maximum degradation ≥50%)” and the DC50 was > 100 nM.

Regarding `Cc1ncsc1-c1ccc([C@H](C)NC(=O)[C@@H]2C[C@@H](O)CN2C(=O)[C@@H](NC(=O)CCCCCCCCCCCCCCCC(=O)N(C)Cc2ccc(CCOc3cc(-c4ccccc4O)nnc3N)cc2)C(C)(C)C)cc1` [Compound 227, N1-(4-(2-((3-amino-6-(2-hydroxyphenyl)pyridazin-4-yl)oxy)ethyl)benzyl)-N17-((S)-1-((2S,4R)-4-hydroxy-2-(((S)-1-(4-(4-methylthiazol-5-yl)phenyl)ethyl)carbamoyl)pyrrolidin-1-yl)-3,3-dimethyl-1-oxobutan-2-yl)-N1-methylheptadecanediamide], in assay [1], the DC50 was > 100 nM and the Dmax was > 75%. Moreover, in assay [2], the “BRM HiBit Degradation Maximum (%)” value was “A (“A” indicates maximum degradation ≥75%)” and the DC50 is > 10 nM.

Consider `Cc1ncsc1-c1ccc([C@H](C)NC(=O)[C@@H]2C[C@@H](O)CN2C(=O)[C@@H](c2cc(OCCN3CCC(C(=O)NCc4ccc(CCOc5cc(-c6ccccc6O)nnc5N)cc4)CC3)no2)C(C)C)cc1` [Compound 176, N-(4-(2-((3-amino-6-(2-hydroxyphenyl)pyridazin-4-yl)oxy)ethyl)benzyl)-1-(2-((5-((R)-1-((2S,4R)-4-hydroxy-2-(((S)-1-(4-(4-methylthiazol-5-yl)phenyl)ethyl)carbamoyl)pyrrolidin-1-yl)-3-methyl-1-oxobutan-2-yl)isoxazol-3-yl)oxy)ethyl)piperidine-4-carboxamide], for which, in assay [1], the DC50 is > 100 nM and the Dmax was > 75%. In assay [2], the “BRM HiBit Degradation Maximum (%)” value was “A (“A” indicates maximum degradation ≥75%)” and the DC50 was > 10 nM.

With `Nc1nnc(-c2ccccc2O)cc1OCCc1ccc(C(=O)NCCOCCOCCNc2cccc3c2C(=O)N(C2CCC(=O)NC2=O)C3=O)cc1` (centres unmarked) [Compound 43, 4-(2-[[3-amino-6-(2-hydroxyphenyl)pyridazin-4-yl]oxy]ethyl)-N-[2-[2-(2-[[2-(2,6-dioxopiperidin-3-yl)-1,3-dioxoisoindol-4-yl]amino]ethoxy)ethoxy]ethyl]benzamide], in assay [1], the DC50 is > 1000 nM and the Dmax is < 50%. Further, in assay [2], the “BRM HiBit Degradation Maximum (%)” value was “C (“C” indicates maximum degradation <50%)” and the DC50 was > 1000 nM.
